One block for each compound: values may come before it.
Columns and labels:
[1] = benzoic acid metabolism study: iv administration to anaesthetised rats, urine collected; assay type: in vivo, rat
[2] = rat, in vivo, iv, 20 mg/kg
Description: (U-^13C)Paracetamol was administered intravenously at 20 mg/kg (at 0 and 3 hrs) to 4 anaesthetised rats, urine was collected from canulated urethra and bile was collected from canulated bile duct (2 rats only) at 0-3 and 3-6 hours. Bile (3-6 hrs) was extracted with dichloromethane and then fractionated by RP-hplc (C18 Kromasil, 25×1 cm, 5 um) using gradient elution with formic acid in water and formic acid in methanol).
Several metabolites were collected. […] The isolated material was then dried and an aliquot re-analysed by RP hplc indicating a peak purity of 96.7%, monitored by on-line UV detection (at 254 nm) and gave the expected (M+H)+ ion at 240 mass units by on-line electrospray ionisation mass spectrometry (EI-MS).

Compound: (^13C-carboxyl) hippuric acid
- level measured in urine ([1]; rat urine, 0-2 hr collection, after iv (13C-carboxyl) benzoic acid 10 mg/Kg): approximately 5 mg/ml

- metabolite identified in bile [2]: Paracetamol sulphate
Compound: (U-^13C)Paracetamol

Compound: O=[13C](O)c1ccccc1 [(^13C-carboxyl) Benzoic acid]
- major metabolite in urine ([1]; rat urine after iv 10 mg/Kg at 0 and 2 hrs, isolated by SPE and RP-hplc): (^13C-carboxy) hippuric acid
